# Results reported in patent US5444082A, “3,9-disubstituted-spiro(5.5)undecanes active on the cardiovascular system, process for their preparation and pharmaceutical composition containing same” (Sigma-Tau Industrie Farmaceutiche Riunite S.p.A., priority 1992, dated 1995).
# Assays:
# [1] = target: T1, Na^+,K^+ -ATPase (Homo sapiens, UniProt P05023); test: inhibition of the activity of the purified Na+,K+-ATPase, measured as % of hydrolysis of 32P-ATP; type: biochemical; settings: read-out: Inhibitory Activity log IC50 (converted)
# T1 construct: receptor purified according to Jorgensen (Jorgensen P., BBA, 1974,356, 36); from tissue
# From the text: (§1) To test the affinity for the receptor site of the Na^+,K^+ -ATPase and the agonist or antagonist activity on the enzyme, the following tests are used: a) displacement of the specific 3-Houabain binding from the Na^+,K^+ -ATPase receptor purified according to Jorgensen (Jorgensen P., BBA, 1974,356, 36) and Erdmann (L. Brown and E. Erdmann., Arzneim. Forsh., 1984, 34 (II), 1314); b) inhibition of the activity of the purified Na^+,K^+ -ATPase measured as % of hydrolysis of ^32 P-ATP in presence and in absence of the tested compound (F. Noel and Godfraind., Biochem. Pharmacol., 1984, 33, 47).
# [2] = target: T1, Na^+,K^+ -ATPase; test: displacement of the specific 3H-ouabain binding from the purified Na+,K+-ATPase receptor; settings: read-out: Binding ^3 H-Ouab. Displacement log. IC50 (converted)
# From the text: as §1
SMILES,IC50 [1],IC50 [2]
"C(=CC1CCC2(CC1)CCC(OCCN1CCCC1)CC2)c1ccoc1 (mixture of isomers) [Comp. I-a, (EZ)-9-(2(N-Pyrrolidinyl)ethoxy)-3-(2-(3-furyl)vinyl)-spiro[5.5]undecane]",25.1 µM,79.4 µM
"C1CCN(CCOC2CCC3(CCC(CCC4CCOC4)CC3)CC2)C1 (racemic) [Comp. 1-i, (RS)-9-(2-(N-Pyrrolidinyl)ethoxy)-3-(2-(3-(RS)-tetra-hydrofuryl)ethyl)-spiro[5.5]undecane]",100 µM,100 µM
"NCCSCC1CCC2(CC1)CCC(Cc1ccoc1)CC2 (stereo not shown) [Comp. 1-be, 9-(2-Aminoethylthiomethyl)-3-(3-furyl)methyl-spiro[5.5]undecane]",15.8 µM,10 µM
"O=C1OCC=C1CCC1CCC2(CC1)CCC(OCCN1CCCC1)CC2 (stereo not shown) [Comp. 1-bg, 9-(2-(N-pyrrolidinyl)ethoxy)-3-(2-(2-oxo-[5H]-3-furyl)ethyl)-spiro[5.5]undecane]",100 µM,100 µM
"OC1(Cc2ccoc2)CCC2(CCC(COCCN3CCCC3)CC2)CC1 (stereo not shown) [Comp. I-ab, 9-(2-(N-Pyrrolidinyl)ethoxy)methyl-3-(3-furyl)meth-yl-3-hydroxy-spiro[5.5]undecane]",15.8 µM,15.8 µM
"N=C(N)NN=C1CCC2(CC1)CCC(CO)CC2 (stereo not shown) [Comp. I-ay, 9-Hydroxymethyl-3-guanidinoimino-spiro[5.5]undecane]",100 µM,25.1 µM
"N=C(N)NN=CC1CCC2(CCC(O)CC2)CC1 (stereo not shown) [Comp. I-az, 9-Hydroxy-3-guanidinoiminomethyl-spirol[5.5]undecane]",63.1 µM,15.8 µM
"c1cc(CC2CCC3(CCC(CSCCN4CCCC4)CC3)CC2)co1 (stereo not shown) [Comp. I-bf, 9-(2-(N-Pyrrolidinyl)ethyl-thiomethyl)-3-(3-furyl)methyl-spiro[5.5]undecane]",100 µM,39.8 µM
"O=C1C=C(CCC2CCC3(CC2)CCC(OCCN2CCCC2)CC3)CO1 (stereo not shown) [Comp. I-bh, 9-(2-(N-Pyrrolidinyl)ethoxy)-3-(2-(2-oxo-[5H]-4-furyl)-ethyl)-spiro[5.5]undecane]",100 µM,63.1 µM
"c1cc(CCC2CCC3(CC2)CCC(OCCN2CCCC2)CC3)co1 (stereo not shown) [Comp. I-g, 9-(2-(N-Pyrrolidinyl)ethoxy)-3-(2-(3-furyl)ethyl)-spiro[5.5]undecane]",15.8 µM,12.6 µM
"c1cncc(CCC2CCC3(CC2)CCC(OCCN2CCCC2)CC3)c1 (stereo not shown) [Comp. I-h, 9-(2-(N-Pyrrolidinyl)ethoxy)-3-(2-(3-pyridyl)ethyl)-spiro[5.5]undecane]",100 µM,25.1 µM
"c1cc(CC2CCC3(CCC(COCCN4CCCC4)CC3)CC2)co1 (stereo not shown) [Comp. I-j, 9-(2-(N-Pyrrolidinyl)ethoxy)methyl-3-(3-furyl)methyl-spiro[5.5]undecane]",50.1 µM,7.94 µM
c1cc(CCC2CCC3(CC2)CCC(OCCCN2CCCC2)CC3)co1 (stereo not shown) [Comp. I-m],50.1 µM,31.6 µM
"c1cc(CC2CCC3(CCC(COCCCN4CCCC4)CC3)CC2)co1 (stereo not shown) [Comp. I-r, 9-(3-(N-Pyrrolidinyl)propoxy)methyl-3-(3-furyl)-methyl-spiro[5.5]undecane]",12.6 µM,31.6 µM
"OC(COC1CCC2(CCC(CCc3ccoc3)CC2)CC1)CN1CCCC1 (stereo not shown) [Comp. I-t, 9-(3-(N-Pyrrolidinyl)-2-hydroxypropoxy)-3-(2-(3-furyl)ethyl)-spiro[5.5]undecane]",50.1 µM,100 µM
"NC(CO)COC1CCC2(CCC(CCc3ccoc3)CC2)CC1 (stereo not shown) [Comp. I-u, 9-(2-Amino-3-hydroxypropoxy)-3-(2-(3-furyl)ethyl)-spiro[5.5]undecane]",50.1 µM,50.1 µM
"OC1(CCc2ccoc2)CCC2(CCC(OCCN3CCCC3)CC2)CC1 (stereo not shown) [Comp. I-x, 9.(2-(N-pyrrolidinyl)ethoxy)-3-(2-(3-furyl)ethyl)-3-hydroxy-spiro[5.5]undecane]",100 µM,100 µM
